Laboratory results from US20120328602A1, “COMPOSITIONS AND METHODS FOR TREATING CONDITIONS ASSOCIATED WITH CERAMIDE BIOSYNTHESIS” (priority 2007, published 2012).
Like-named read-outs stand apart in the source and are kept apart here.

Columns and labels:
ceramide synthase = ceramide synthase activity in spinal cord homogenates; format: in vivo, mice
Protocol: About 60 to 80 mg of spinal cord homogenates were incubated with [^3H]-palmytic acid (2.5 μCi/ml, GE Healthcare, England) for one hour. Lipids were extracted with ice-cold methanol containing 2% acetic acid and 5% chloroform and resolved using thin-layer chromatography. Lipids co-migrating with standards were scraped and quantified by […] counting as described elsewhere (Castillo et al., 2007).

peroxynitrite = assay: 3-nitrotyrosine (NT) staining in dorsal horn as marker of peroxynitrite; format: in vivo, mice
From the text: . Detection of NT in this setting can therefore be reliably used as marker of peroxynitrite. […]; FIG. 8c), evidence of the contribution of ceramide in the production of spinal peroxynitrite.

mice [1] = format: in vivo, male CD-1 mice
mice [2] = format: in vivo; conditions: for % MPE for acute morphine: acute morphine 3 mg/kg s.c. on day five
ceramide = ceramide in spinal cord dorsal horn by immunohistochemistry and ESI-MS/MS (Example 1); format: in vivo, mice
Iba1 = assay: spinal expression of Iba1 (microglia activation); format: in vivo, mice; conditions: for Iba1 immunoreactivity in superficial layers of the dorsal horn: micrographs
[3] = tested on: manganese superoxide dismutase (MnSOD); assay: MnSOD nitration by immunoprecipitation and western blot; format: in vivo, mice
Protocol: Animals were rapidly sacrificed (<1 min) in a CO2 chamber and the dorsal portion of the spinal cord lumbar region enlargement removed and stored at −80° C. until used. Cytosolic and nuclear extracts were prepared as previously described (Bethea et al., 1998), with minor modifications. Tissues from each mouse were suspended in extraction Buffer A (0.2 mM PMSF, […], 20 μM leupeptin, 1 mM sodium orthovanadate), homogenized for two minutes, and centrifuged at 1,000×g for ten minutes at 4° C. Supernatants were collected as the cytosolic fraction. […] The levels of IκB-α, phospho-NF-κB p65 (serine 536), were quantified in cytosolic fraction from spinal cord tissue, while NF-κB p65 levels were quantified in nuclear fraction. […] Manganese superoxide dismutase (MnSOD) nitration was determined with western blot analysis of immunoprecipitated protein complex in total lysates using antibodies specific to these proteins. […] The relative expression of the protein levels as the band density for IκB-α (˜37 kDa), phospho NF-κB (65 kDa), NF-κB p65 (75 kDa), MnSOD (˜29 kDa), GFAP (˜50 kDa), and Iba1(˜17 kDa) was quantified by scanning of the X-ray films with GS-700 Imaging Densitometer (BIO-RAD U.S.A.) and a computer program (Molecular Analyst, IBM).

mice [4] = assay: hot plate, morphine-induced antinociceptive tolerance (Examples 3-5); format: in vivo, Male CD-1 mice; conditions: for % MPE: n=6
Protocol: Nociceptive thresholds were determined by measuring latencies (in seconds) of mice placed in a transparent glass cylinder on a hot plate (Ugo Basile, Italy) maintained at 52° C. Determination of antinociception was assessed between 7 and 10:00 A.M. All injections were given intra-peritoneally (i.p.) or subcutaneously (s.c.) in a volume of 0.1 and 0.3 ml, respectively, at approximately 7 A.M. and 4 P.M. Responses indicative of nociception included intermittent lifting and/or licking of the hindpaws or escape behavior. […] Results were expressed as percentage of maximum possible antinociceptive effect, which was calculated as follows: (response latency−baseline latency)/(cut-off latency−baseline latency)×100. A cut-off latency of twenty seconds was employed to prevent tissue damage. Ten mice per group were used and all experiments were conducted with the experimentors blinded to treatment conditions. […] The following experimental groups were used: […]
Vehicle (V) Group: In this group, mice were injected twice per day for four days with an i.p, injection of saline and a s.c. injection of saline.

CN1CC[C@]23c4c5ccc(O)c4O[C@H]2[C@@H](O)C=C[C@H]3[C@H]1C5 [morphine]
enzymatic activity of ceramide synthase (CS) (ceramide synthase; repeated morphine, tolerant mice vs vehicle): increased enzymatic activity
NT staining in dorsal horn (peroxynitrite; morphine tolerant mice): appearance of NT staining in tolerant mice
% MPE for acute morphine (mice [1]; Morphine groups (morphine 50 mg/kg by osmotic minipump), acute morphine 3 mg/kg i.p., tail flick): 15±4 % MPE
% MPE for acute morphine (mice [1]; control groups (saline minipump), acute morphine 3 mg/kg i.p., tail flick, day six): 90±5 % MPE
% MPE for acute morphine (mice [2]; Control group (saline over four days)): 93±8 % MPE
% MPE for acute morphine (mice [2]; Morphine group (morphine 2×10 mg/kg/day over four days)): 20±14 % MPE
antinociceptive effect (mice [2]; acute morphine 3 mg/kg subcutaneously, forty minutes after dose, hot plate 52° C., n=8): 99±2%
ceramide in dorsal horn, immunohistochemistry with anti-ceramide antibody (ceramide; repeated administration of morphine over four days): appearance of ceramide in the superficial layers of the dorsal horn
predominant ceramide species increased in dorsal horn tissues, ESI-MS/MS (ceramide; repeated morphine administration, n=3): 18:0, 20:0, and 22:0 ceramide
Iba1 immunoreactivity in superficial layers of the dorsal horn (Iba1; acute morphine in tolerant mice vs vehicle): increased
spinal expression of IBa1 (Iba1; morphine group, n=5, ±SEM): 541.29±0.073 densitometry units
post-translational nitration of MnSOD ([3]; mouse, in vivo): 850±70 densitometry units
percent maximal possible antinociceptive effect (mice [4]; acute morphine 3 mg/kg in vehicle group (saline over four days), hot plate): 90-95%
% MPE (mice [4]; morphine group (tolerant), acute morphine 3 mg/kg on day five): 10±2%
development of antinociceptive tolerance (mice [4]; repeated administration of morphine (20 mg/kg/d) over four days): led to the development of antinociceptive tolerance
% MPE (mice [4]; vehicle group (saline four days), acute morphine 3 mg/kg on day five): 96±3%

CCCC[C@@H](C)[C@@H](OC(=O)C[C@@H](CC(=O)O)C(=O)O)[C@H](C[C@@H](C)C[C@H](O)CCCC[C@@H](O)C[C@H](O)[C@H](C)N)OC(=O)C[C@@H](CC(=O)O)C(=O)O [FB1, Fumonisin B1]
increase in CS activity (ceramide synthase; co-administration of morphine with FB1 1 mg/kg/d, n=10): attenuated as expected the increase in CS activity
appearance of NT staining (peroxynitrite; co-administration of morphine with FB1 1 mg/kg/d): blocked
% MPE for acute morphine (mice [1]; Mor+FB1 groups, FB1 1 mg/kg/day i.p. for six days with morphine minipump): 87±4 % MPE
% MPE for acute morphine (mice [1]; control+FB1 groups, FB1 1 mg/kg/day i.p., saline minipump): 85±6 % MPE
responses to acute morphine in control groups vs control groups treated with drug (mice [2]; Control+Drug groups, no repeated morphine): similar
development of antinociceptive tolerance (mice [2]; co-administration with morphine, i.p., FB1 1 mg/kg, myriocin 0.2 mg/kg, D609 40 mg/kg): prevented the development of antinociceptive tolerance
antinociceptive effects when tested alone (mice [2]; drug alone (not shown)): no antinociceptive effects
increase in ceramide by immunohistochemical analysis and ESI-MS/MS (ceramide; co-administration of morphine with FB1 1 mg/kg): prevented
Iba1 immunoreactivity in superficial layers of the dorsal horn (Iba1; 1 mg/kg/d of FB1 with morphine): blocked
spinal expression of IBa1 (activation of microglial cell) (Iba1; morphine plus FB1 1 mg/kg/d, n=5): 275.53±0.053 densitometry units
post-translational nitration of MnSOD ([3]; morphine plus FB1 1 mg/kg/d, n=5, ±SEM): 350±45 densitometry units
development of tolerance, dose-dependence (mice [4]; co-administered with morphine, FB1 0.1-1 mg/kg/d, myriocin 0.1-0.4 mg/kg/d, D609 10-40 mg/kg/d, n=10): attenuated in a dose-dependent manner
hot plate latencies following s.c. saline (mice [4]; day five, highest dose of drug, no morphine, n=10): six and seven
difference in responses to acute morphine (0.3-3 mg/kg), drug vs vehicle (mice [4]; highest dose over five days: FB1 1 mg/kg/d, myriocin 0.4 mg/kg/d, D609 40 mg/kg/d, n=10): statistically insignificant
antinociceptive effects when tested alone (mice [4]; highest dose, alone): none of FB1, myriocin, or D609 had antinociceptive effects
% MPE (mice [4]; tolerant mice, single i.p. dose fifteen minutes before acute morphine 3 mg/kg: FB1 1 mg/kg, myriocin 0.4 mg/kg, D609 40 mg/kg): 7±3%
